PMC9511493, “2-(Fluoromethoxy)-4′-(S-methanesulfonimidoyl)-1,1′-biphenyl (UCM-1306), an Orally Bioavailable Positive Allosteric Modulator of the Human Dopamine D1 Receptor for Parkinson’s Disease” (Journal of Medicinal Chemistry, 2022)
Values joined by “and” are separate entries in the source; they are usually repeats but may differ in a detail not shown here. Equal entries are not always repeated. “Also recorded” adds a separate entry of the source. Where two headings read alike, the source gives them in different places.

Tests used:
CYP1A2 = molecular target: T1, CYP1A2 (Homo sapiens, UniProt P05177); assay: cytochrome inhibition, fluorescence assay, CYP1A2; assay type: in vitro ADME
T1 construct: host or cells: insect cell microsomes
T1 sequence (P05177 1-516): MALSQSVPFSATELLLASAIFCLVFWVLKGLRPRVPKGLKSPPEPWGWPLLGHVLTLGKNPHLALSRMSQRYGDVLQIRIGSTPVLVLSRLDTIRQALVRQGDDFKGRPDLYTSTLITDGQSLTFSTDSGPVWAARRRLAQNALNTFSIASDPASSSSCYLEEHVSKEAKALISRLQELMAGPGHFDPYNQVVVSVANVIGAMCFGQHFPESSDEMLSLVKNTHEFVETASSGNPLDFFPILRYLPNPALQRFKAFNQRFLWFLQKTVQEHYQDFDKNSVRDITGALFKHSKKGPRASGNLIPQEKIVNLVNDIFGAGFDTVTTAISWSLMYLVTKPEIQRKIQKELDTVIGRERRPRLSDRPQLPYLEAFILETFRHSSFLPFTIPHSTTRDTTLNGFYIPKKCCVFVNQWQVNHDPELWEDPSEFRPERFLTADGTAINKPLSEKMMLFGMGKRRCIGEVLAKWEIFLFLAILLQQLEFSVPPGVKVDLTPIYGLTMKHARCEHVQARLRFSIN
Protocol: Cytochrome inhibition. The objective of this study was to screen the potential of test […]
performed using recombinant isoforms CYP1A2, CYP2C9, CYP2C19, CYP2D6, and CYP3A4, and probe substrates with fluorescent detection.
Assays were conducted in a 200 µL volume in 96-well microtiter plates (COSTAR 3915).
Addition of cofactor-buffer mixture (KH2PO4 buffer, 1.3 mM NADP, 3.3 mM MgCl2, 3.3 mM glucose -6- phosphate, and 0.4 U/mL glucose -6- phosphate dehydrogenase), supersomes control, standard inhibitors (furafyline, tranylzypromine, ketoconazole, sulfaphenazole, and quinidine from Sigma Aldrich) and test compound to the plate was carried out by a liquid handling station (Zephyr Caliper). The plate was then pre-incubated at 37 °C for 5 min, and the reaction was initiated by the addition of the pr e - warmed enzyme/substrate (E/S) mix. […]
Fluorescence per well was measured using a fluorescence plate reader (Tecan Infinite M1000 pro) and percentage of inhibition was calculated. hERG ion channel inhibition. […]

[1] = plasma and brain concentrations in the locomotor activity study; assay type: in vivo, mouse; settings: 30 mg/kg po; for concentration at 30 min / concentration at 60 min: male, C57BL/6, mouse, po, 30 mg/kg
Protocol: Regarding the PD model, reserpine is an alkaloid known to induce hypomobility/akinesia and rigidity, and reserpinized rodents are widely used as a preclinical model for PD.
The study was carried out in male C57BL/6 wild-type (22–25 g) mice that were acclimatized for 5 days. Animals were randomized based on body weight into six groups (G1 to G6), ten animals per group (n = 10), being group G1 the naïve control group. Animals were fed with standard diet ad libitum. Animals were dosed with subcutaneous administration of reserpine (2.5 mg/kg in DMSO/saline) and after 20 h they were treated with a vehicle (10 mL/kg, po), compound 26 (30 mg/kg, po), L-DOPA (100 or 400 mg/kg, ip) + carbidopa (100 mg/kg, ip) and/or their combination, as indicated in Figure 7. The vehicle employed for compound 26 administration was 5% NMP + 5% solutol HS-15 + 90% normal saline. L-DOPA and carbidopa were administered 30 min prior to start of locomotor activity recording. Compound 26 was administered and 15 min later, mice were placed in the locomotor activity cage to measure the locomotor activity for 60 min (total distance travelled) using ALL Maze version 0.5 automated software enabled with video tracking system. After the activity sessions, raw data were reduced using ALL Maze 5.0 software and Microsoft Excel. Statistical analysis was done with GraphPad Prism-5 using one way ANOVA followed by Dunnett’s test/Tukey’s post hoc test and/or two-way ANOVA followed by Bonferroni post hoc test. Data were considered statistically significant, if P value was less than 0.05. […]
Table S2.Plasma and brain concentrations achieved for compound 26in the locomotor
Plasma concentration (ng/mL) Brain concentration (ng/mL)
Animal 30 min 60 min Animal 30 min 60 min

C57BL/6J mice = assay: cocaine-induced hyperlocomotion assay; assay type: in vivo, mouse; settings: 1 mg/kg ip
Protocol: The experiment was conducted in adherence to the European Communities Council Directive (86/609/ECC) and Spanish regulations (BOE 252/34367-91, 2005) for the use of laboratory animals. The assay was performed according to a previously reported method[57] using 3 month old male mice with C57BL/6J background, and 8 mice were used for each experimental condition. All mice were handled and habituated to the injection procedures once per day for 5 days prior to behavioral testing. Experiments were carried out between 8:00 and 20:00, and the animals were acclimated to the experimental room for 30 min each day. Performance in the open field was recorded by a computer-based video tracking system (Smart v2.5, Panlab, Barcelona, Spain). Four open fields (50 × 50 × 50 cm, Panlab) with gray backgrounds were used, and the maximum light intensity in the center of the open field was 100 lux. Animals received a dose of 26 (1 mg/kg, ip) in a volume of 20 mL/kg of sterile saline as the vehicle, 15 min prior to a dose of cocaine (20 mg/kg, sc). Five min after cocaine injection, animals were placed in the open field and locomotion was measured at […] along a 30-min period of analysis. Horizontal locomotion was measured as total distance traveled (cm).

Compound	IC50 (CYP1A2)	CYP1A2 (%) (CYP1A2; percentage of inhibition at 10 μM)	Brain concentration (ng/mL), individual animals 1-3 ([1]; 30 min)	Plasma concentration (ng/mL), individual animals 1-3 ([1]; 30 min)	Brain concentration (ng/mL), individual animals 1-3 ([1]; 60 min)	Plasma concentration (ng/mL), individual animals 1-3 ([1]; 60 min)	concentration at 30 min ([1]; brain, 30 min, read-out: Brain concentration (ng/mL), individual animals 1-3)	concentration at 30 min ([1]; brain, 30 min, read-out: Brain concentration (ng/mL), mean)	concentration at 60 min ([1]; brain, 60 min, read-out: Brain concentration (ng/mL), mean)	concentration at 30 min ([1]; plasma, 30 min, read-out: Plasma concentration (ng/mL), individual animals 1-3)	concentration at 30 min ([1]; plasma, 30 min, read-out: Plasma concentration (ng/mL), mean)	concentration at 60 min ([1]; plasma, 60 min, read-out: Plasma concentration (ng/mL), mean)	effect on cocaine-induced hyperlocomotion (C57BL/6J mice; 15 min before cocaine 20 mg/kg sc)	intrinsic locomotor activity, compound alone (C57BL/6J mice; no cocaine)
O=Cc1ccc(-c2ccccc2OCF)cc1 [Compound 3, 2′-(Fluoromethoxy)[1,1′-biphenyl]-4-carbaldehyde]	830 ± 170 nM	–	–	–	–	–	–	–	–	–	–	–	–	–
CS(=N)(=O)c1ccc(-c2ccccc2OCF)cc1 (centres unmarked) [Compound 26, 2-(Fluoromethoxy)-4′-(S-methanesulfonimidoyl)-1,1′-biphenyl]	–	49 ± 2%	7185.33 ng/mL and 5537.43 ng/mL	9994.87 ng/mL and 7753.96 ng/mL	5552.94 ng/mL and 2620.14 ng/mL and 4178.34 ng/mL	6716.72 ng/mL and 6187.65 ng/mL and 1662.96 ng/mL	7340 ng/mL	6690 ng/mL	4120 ng/mL	9690 ng/mL	9150 ng/mL	4860 ng/mL	potentiated the hyperlocomotion induced by cocaine; also recorded: enhanced cocaine (20 mg/kg, sc)-induced hyperlocomotion	no intrinsic locomotor activity
